{"source": "patent US9255090B2", "about": "“Heterocyclyl derivatives and their use as prostaglandin D2 receptor modulators” (Actelion Pharmaceuticals Ltd., priority 2012, dated 2016)", "key": {"eosinophils": {"test_system": "eosinophils", "assay": "Eosinophil shape change assay with human plasma", "assay_type": "cell-based", "settings": "human plasma (50%), PGD2 100 nM activation, antagonistic activity", "summary_of_the_method": "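Human polymorphonuclear cells stained with anti-CD49d-APC, combined with compound-preincubated human plasma (50% of final volume, 4×10^6 cells/ml) for 10 min at 37° C., then stimulated 5 min with 100 nM PGD2 and fixed. Flow cytometry scored percent eosinophils with increased forward scatter.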"}, "hCRTH2 receptor": {"molecular_target": "hCRTH2 receptor (Homo sapiens (Human), UniProt Q9Y5Y4)", "sequence (Q9Y5Y4 whole entry)": "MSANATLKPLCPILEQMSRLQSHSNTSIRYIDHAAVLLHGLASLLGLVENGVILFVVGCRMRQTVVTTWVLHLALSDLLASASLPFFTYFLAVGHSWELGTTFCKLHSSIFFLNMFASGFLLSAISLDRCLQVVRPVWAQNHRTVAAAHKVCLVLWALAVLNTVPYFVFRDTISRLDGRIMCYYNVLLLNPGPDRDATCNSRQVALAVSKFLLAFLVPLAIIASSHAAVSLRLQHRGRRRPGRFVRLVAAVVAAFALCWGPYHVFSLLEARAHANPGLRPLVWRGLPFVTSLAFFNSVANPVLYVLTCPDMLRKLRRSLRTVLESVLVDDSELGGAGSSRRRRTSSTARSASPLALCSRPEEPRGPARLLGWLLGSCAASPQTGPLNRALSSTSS", "assay": "hCRTH2 receptor membranes radioligand (3H-PGD2) displacement assay", "assay_type": "binding", "settings": "3H-PGD2 radioligand displacement, HEK293-hCRTH2 membranes", "summary_of_the_method": "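Compound was first mixed with buffer, then 3H-PGD2 was added at 2.5 nM, and the reaction was started with hCRTH2 membranes from HEK293 cells at 20 μg/well. After 90 min at room temperature, mixtures were filtered and washed with ice-cold buffer, and retained radioactivity was counted.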"}}}
{"compound": "CC(C)COc1ccc(CC(=O)O)cc1-c1ccc(F)c2c1CN(C(=O)OCc1ccccc1)CC2", "note": "[Example 198, 8-(5-Carboxymethyl-2-isobutoxy-phenyl)-5-fluoro-3,4-dihydro-1H-isoquinoline-2-carboxylic acid benzyl ester]", "values": [{"measurement": "IC50", "setting": "eosinophils; Homo sapiens, Eosinophil", "value": 72, "unit": "nM"}, {"measurement": "IC50", "setting": "hCRTH2 receptor", "value": 1.28, "unit": "nM"}]}
{"compound": "COCCOc1ccc(CC(=O)O)cc1-c1ccc(F)c2c1CN(C(=O)OCc1ccccc1)CC2", "note": "[Example 199, 8-[5-Carboxymethyl-2-(2-methoxy-ethoxy)-phenyl]-5-fluoro-3,4-dihydro-1H-isoquinoline-2-carboxylic acid benzyl ester]", "values": [{"measurement": "IC50", "setting": "eosinophils; Homo sapiens, Eosinophil", "value": 19, "unit": "nM"}, {"measurement": "IC50", "setting": "hCRTH2 receptor", "value": 0.49, "unit": "nM"}]}
{"compound": "CCOc1ccc(CC(=O)O)cc1-c1ccc(F)c2c1CN(C(=O)CC(C)c1ccccn1)CC2", "note": "(centres unmarked) [Example 203, {4-Ethoxy-3-[5-fluoro-2-(3-pyridin-2-yl-butyryl)-1,2,3,4-tetrahydro-isoquinolin-8-yl]-phenyl}-acetic acid]", "values": [{"measurement": "IC50", "setting": "eosinophils", "value": 12, "unit": "nM"}, {"measurement": "IC50", "setting": "hCRTH2 receptor", "value": 2.9, "unit": "nM"}]}
{"compound": "CCOc1ccc(CC(=O)O)cc1-c1ccc(F)c2c1CN(C(=O)CC(C)c1ccccn1)CC2", "note": "(centres unmarked) [Example 204, {4-Ethoxy-3-[5-fluoro-2-(3-pyridin-2-yl-butyryl)-1,2,3,4-tetrahydro-isoquinolin-8-yl]-phenyl}-acetic acid]", "values": [{"measurement": "IC50", "setting": "eosinophils", "value": 30, "unit": "nM"}, {"measurement": "IC50", "setting": "hCRTH2 receptor", "value": 2.9, "unit": "nM"}]}
{"compound": "CCOc1cc(CC(=O)O)ccc1-c1ccc(F)c2c1CN(C(=O)CC1OCCc3ccccc31)CC2", "note": "(centres unmarked) [Example 205, {3-Ethoxy-4-[5-fluoro-2-(2-isochroman-1-yl-acetyl)-1,2,3,4-tetrahydro-isoquinolin-8-yl]-phenyl}-acetic acid]", "values": [{"measurement": "IC50", "setting": "eosinophils; Homo sapiens, Eosinophil", "value": 17, "unit": "nM"}, {"measurement": "IC50", "setting": "hCRTH2 receptor", "value": 1, "unit": "nM"}]}
{"compound": "CCOc1cc(CC(=O)O)ccc1-c1ccc(F)c2c1CN(C(=O)CC1OCCc3ccccc31)CC2", "note": "(centres unmarked) [Example 206, {3-Ethoxy-4-[5-fluoro-2-(2-isochroman-1-yl-acetyl)-1,2,3,4-tetrahydro-isoquinolin-8-yl]-phenyl}-acetic acid]", "values": [{"measurement": "IC50", "setting": "eosinophils", "value": 14, "unit": "nM"}, {"measurement": "IC50", "setting": "hCRTH2 receptor", "value": 2.4, "unit": "nM"}]}
{"compound": "CCOc1ccc(CC(=O)O)cc1-c1ccc(F)c2c1CN(C(=O)CC(C)c1ccc(F)cc1)CC2", "note": "(centres unmarked) [Example 211, (4-Ethoxy-3-{5-fluoro-2-[3-(4-fluoro-phenyl)-butyryl]-1,2,3,4-tetrahydro-isoquinolin-8-yl}-phenyl)-acetic acid]", "values": [{"measurement": "IC50", "setting": "eosinophils; Homo sapiens, Eosinophil", "value": 7, "unit": "nM"}, {"measurement": "IC50", "setting": "hCRTH2 receptor", "value": 2.6, "unit": "nM"}]}
{"compound": "CCOc1ccc(CC(=O)O)cc1-c1ccc(F)c2c1CN(C(=O)C(C)Cc1ccccc1)CC2", "note": "(centres unmarked) [Example 214]", "values": [{"measurement": "IC50", "setting": "eosinophils; Homo sapiens, Eosinophil", "value": 11, "unit": "nM"}, {"measurement": "IC50", "setting": "hCRTH2 receptor", "value": 3.1, "unit": "nM"}]}
{"compound": "CC(C)Oc1cc(CC(=O)O)ccc1-c1ccc(F)c2c1CN(C(=O)OCc1ccccc1)CC2", "note": "[Example 217, 8-(4-Carboxymethyl-2-isopropoxy-phenyl)-5-fluoro-3,4-dihydro-1H-isoquinoline-2-carboxylic acid benzyl ester]", "values": [{"measurement": "IC50", "setting": "eosinophils; Homo sapiens, Eosinophil", "value": 46, "unit": "nM"}, {"measurement": "IC50", "setting": "hCRTH2 receptor", "value": 2.3, "unit": "nM"}]}
{"compound": "CCOc1ccc(CC(=O)O)cc1-c1ccc(F)c2c1CN(C(=O)C[C@@H](C)c1ccccc1)CC2", "note": "[Example 221, {4-Ethoxy-3-[5-fluoro-2-((R)-3-phenyl-butyryl)-1,2,3,4-tetrahydro-isoquinolin-8-yl]-phenyl}-acetic acid]", "values": [{"measurement": "IC50", "setting": "eosinophils; Homo sapiens, Eosinophil", "value": 34, "unit": "nM"}, {"measurement": "IC50", "setting": "hCRTH2 receptor", "value": 1.2, "unit": "nM"}]}
{"compound": "CCOc1ccc(CC(=O)O)cc1-c1ccc(F)c2c1CN(C(=O)CC1(c3ccccc3)CC1)CC2", "note": "[Example 222, (4-Ethoxy-3-{5-fluoro-2-[2-(1-phenyl-cyclopropyl)-acetyl]-1,2,3,4-tetrahydro-isoquinolin-8-yl}-phenyl)-acetic acid]", "values": [{"measurement": "IC50", "setting": "eosinophils; Homo sapiens, Eosinophil", "value": 21, "unit": "nM"}, {"measurement": "IC50", "setting": "hCRTH2 receptor", "value": 26.4, "unit": "nM"}]}
{"compound": "CCOc1ccc(CC(=O)O)cc1-c1ccc(F)c2c1CN(C(=O)CC(C)(C)c1ccc(F)cc1)CC2", "note": "[Example 223, (4-Ethoxy-3-{5-fluoro-2-[3-(4-fluoro-phenyl)-3-methyl-butyryl]-1,2,3,4-tetrahydro-isoquinolin-8-yl}-phenyl)-acetic acid]", "values": [{"measurement": "IC50", "setting": "eosinophils; Homo sapiens, Eosinophil", "value": 19, "unit": "nM"}, {"measurement": "IC50", "setting": "hCRTH2 receptor", "value": 15, "unit": "nM"}]}
{"compound": "CCOc1ccc(CC(=O)O)cc1-c1ccc(F)c2c1CN(C(=O)CC(C)(C)c1ccccc1)CC2", "note": "[Example 225, {4-Ethoxy-3-[5-fluoro-2-(3-methyl-3-phenyl-butyryl)-1,2,3,4-tetrahydro-isoquinolin-8-yl]-phenyl}-acetic acid]", "values": [{"measurement": "IC50", "setting": "eosinophils; Homo sapiens, Eosinophil", "value": 37, "unit": "nM"}, {"measurement": "IC50", "setting": "hCRTH2 receptor", "value": 11.7, "unit": "nM"}]}
{"compound": "CCOc1cc(CC(=O)O)ccc1-c1ccc(F)c2c1CN(C(=O)CC1(c3ccccc3)CC1)CC2", "note": "[Example 230, (3-Ethoxy-4-{5-fluoro-2-[2-(1-phenyl-cyclopropyl)-acetyl]-1,2,3,4-tetrahydro-isoquinolin-8-yl}-phenyl)-acetic acid]", "values": [{"measurement": "IC50", "setting": "eosinophils; Homo sapiens, Eosinophil", "value": 19, "unit": "nM"}, {"measurement": "IC50", "setting": "hCRTH2 receptor", "value": 1, "unit": "nM"}]}
{"compound": "CCOc1cc(CC(=O)O)ccc1-c1ccc(F)c2c1CN(C(=O)C[C@@H](C)c1ccccc1)CC2", "note": "[Example 234, {3-Ethoxy-4-[5-fluoro-2-((R)-3-phenyl-butyryl)-1,2,3,4-tetrahydro-isoquinolin-8-yl]-phenyl}-acetic acid]", "values": [{"measurement": "IC50", "setting": "eosinophils; Homo sapiens, Eosinophil", "value": 47, "unit": "nM"}, {"measurement": "IC50", "setting": "hCRTH2 receptor", "value": 0.9, "unit": "nM"}]}
{"compound": "CCOc1cc(CC(=O)O)ccc1-c1ccc(F)c2c1CN(C(=O)CC(C)(C)c1ccc(F)cc1)CC2", "note": "[Example 237, (3-Ethoxy-4-{5-fluoro-2-[3-(4-fluoro-phenyl)-3-methyl-butyryl]-1,2,3,4-tetrahydro-isoquinolin-8-yl}-phenyl)-acetic acid]", "values": [{"measurement": "IC50", "setting": "eosinophils; Homo sapiens, Eosinophil", "value": 9, "unit": "nM"}, {"measurement": "IC50", "setting": "hCRTH2 receptor", "value": 0.3, "unit": "nM"}]}
{"compound": "CCOc1cc(CC(=O)O)ccc1-c1ccc(F)c2c1CN(C(=O)CC(C)(C)c1ccccc1)CC2", "note": "[Example 238, {3-Ethoxy-4-[5-fluoro-2-(3-methyl-3-phenyl-butyryl)-1,2,3,4-tetrahydro-isoquinolin-8-yl]-phenyl}-acetic acid]", "values": [{"measurement": "IC50", "setting": "eosinophils; Homo sapiens, Eosinophil", "value": 15, "unit": "nM"}, {"measurement": "IC50", "setting": "hCRTH2 receptor", "value": 0.6, "unit": "nM"}]}
{"compound": "COc1ccc(CC(=O)O)cc1-c1ccc(F)c2c1CN(C(=O)CC(C)(C)c1cccc(F)c1)CC2", "note": "[Example 252, (3-{5-Fluoro-2-[3-(3-fluoro-phenyl)-3-methyl-butyryl]-1,2,3,4-tetrahydro-isoquinolin-8-yl}-4-methoxy-phenyl)-acetic acid]", "values": [{"measurement": "IC50", "setting": "eosinophils; Homo sapiens, Eosinophil", "value": 258, "unit": "nM"}, {"measurement": "IC50", "setting": "hCRTH2 receptor", "value": 13.2, "unit": "nM"}]}
{"compound": "COc1ccc(CC(=O)O)cc1-c1ccc(F)c2c1CN(C(=O)CC1(c3ccccc3)CC1)CC2", "note": "[Example 258, (3-{5-Fluoro-2-[2-(1-phenyl-cyclopropyl)-acetyl]-1,2,3,4-tetrahydro-isoquinolin-8-yl}-4-methoxy-phenyl)-acetic acid]", "values": [{"measurement": "IC50", "setting": "eosinophils; Homo sapiens, Eosinophil", "value": 101, "unit": "nM"}, {"measurement": "IC50", "setting": "hCRTH2 receptor", "value": 2.8, "unit": "nM"}]}
{"compound": "CCOc1ccc(CC(=O)O)cc1-c1ccc(F)c2c1CN(C(=O)CC1(c3cccc(F)c3)CC1)CC2", "note": "[Example 275, [4-Ethoxy-3-(5-fluoro-2-{2-[1-(3-fluoro-phenyl)-cyclopropyl]-acetyl}-1,2,3,4-tetrahydro-isoquinolin-8-yl)-phenyl]-acetic acid]", "values": [{"measurement": "IC50", "setting": "eosinophils; Homo sapiens, Eosinophil", "value": 76, "unit": "nM"}, {"measurement": "IC50", "setting": "hCRTH2 receptor", "value": 6.8, "unit": "nM"}]}
{"compound": "CCOc1ccc(CC(=O)O)cc1-c1ccc(F)c2c1CN(C(=O)CC1(c3ccc(F)cc3)CC1)CC2", "note": "[Example 277, [4-Ethoxy-3-(5-fluoro-2-{2-[1-(4-fluoro-phenyl)-cyclopropyl]-acetyl}-1,2,3,4-tetrahydro-isoquinolin-8-yl)-phenyl]-acetic acid]", "values": [{"measurement": "IC50", "setting": "eosinophils; Homo sapiens, Eosinophil", "value": 21, "unit": "nM"}, {"measurement": "IC50", "setting": "hCRTH2 receptor", "value": 1.9, "unit": "nM"}]}
{"compound": "CCOc1ccc(CC(=O)O)cc1-c1ccc(F)c2c1CN(C(=O)CCc1ccc(F)cc1)CC2", "note": "[Example 310, (4-Ethoxy-3-{5-fluoro-2-[3-(4-fluoro-phenyl)-propionyl]-1,2,3,4-tetrahydro-isoquinolin-8-yl}-phenyl)-acetic acid]", "values": [{"measurement": "IC50", "setting": "eosinophils; Homo sapiens, Eosinophil", "value": 7, "unit": "nM"}, {"measurement": "IC50", "setting": "hCRTH2 receptor", "value": 1.7, "unit": "nM"}]}
